Each structure is given as a SMILES string.

G2019S LRRK2, sequence (Q5S007 whole entry G2019S): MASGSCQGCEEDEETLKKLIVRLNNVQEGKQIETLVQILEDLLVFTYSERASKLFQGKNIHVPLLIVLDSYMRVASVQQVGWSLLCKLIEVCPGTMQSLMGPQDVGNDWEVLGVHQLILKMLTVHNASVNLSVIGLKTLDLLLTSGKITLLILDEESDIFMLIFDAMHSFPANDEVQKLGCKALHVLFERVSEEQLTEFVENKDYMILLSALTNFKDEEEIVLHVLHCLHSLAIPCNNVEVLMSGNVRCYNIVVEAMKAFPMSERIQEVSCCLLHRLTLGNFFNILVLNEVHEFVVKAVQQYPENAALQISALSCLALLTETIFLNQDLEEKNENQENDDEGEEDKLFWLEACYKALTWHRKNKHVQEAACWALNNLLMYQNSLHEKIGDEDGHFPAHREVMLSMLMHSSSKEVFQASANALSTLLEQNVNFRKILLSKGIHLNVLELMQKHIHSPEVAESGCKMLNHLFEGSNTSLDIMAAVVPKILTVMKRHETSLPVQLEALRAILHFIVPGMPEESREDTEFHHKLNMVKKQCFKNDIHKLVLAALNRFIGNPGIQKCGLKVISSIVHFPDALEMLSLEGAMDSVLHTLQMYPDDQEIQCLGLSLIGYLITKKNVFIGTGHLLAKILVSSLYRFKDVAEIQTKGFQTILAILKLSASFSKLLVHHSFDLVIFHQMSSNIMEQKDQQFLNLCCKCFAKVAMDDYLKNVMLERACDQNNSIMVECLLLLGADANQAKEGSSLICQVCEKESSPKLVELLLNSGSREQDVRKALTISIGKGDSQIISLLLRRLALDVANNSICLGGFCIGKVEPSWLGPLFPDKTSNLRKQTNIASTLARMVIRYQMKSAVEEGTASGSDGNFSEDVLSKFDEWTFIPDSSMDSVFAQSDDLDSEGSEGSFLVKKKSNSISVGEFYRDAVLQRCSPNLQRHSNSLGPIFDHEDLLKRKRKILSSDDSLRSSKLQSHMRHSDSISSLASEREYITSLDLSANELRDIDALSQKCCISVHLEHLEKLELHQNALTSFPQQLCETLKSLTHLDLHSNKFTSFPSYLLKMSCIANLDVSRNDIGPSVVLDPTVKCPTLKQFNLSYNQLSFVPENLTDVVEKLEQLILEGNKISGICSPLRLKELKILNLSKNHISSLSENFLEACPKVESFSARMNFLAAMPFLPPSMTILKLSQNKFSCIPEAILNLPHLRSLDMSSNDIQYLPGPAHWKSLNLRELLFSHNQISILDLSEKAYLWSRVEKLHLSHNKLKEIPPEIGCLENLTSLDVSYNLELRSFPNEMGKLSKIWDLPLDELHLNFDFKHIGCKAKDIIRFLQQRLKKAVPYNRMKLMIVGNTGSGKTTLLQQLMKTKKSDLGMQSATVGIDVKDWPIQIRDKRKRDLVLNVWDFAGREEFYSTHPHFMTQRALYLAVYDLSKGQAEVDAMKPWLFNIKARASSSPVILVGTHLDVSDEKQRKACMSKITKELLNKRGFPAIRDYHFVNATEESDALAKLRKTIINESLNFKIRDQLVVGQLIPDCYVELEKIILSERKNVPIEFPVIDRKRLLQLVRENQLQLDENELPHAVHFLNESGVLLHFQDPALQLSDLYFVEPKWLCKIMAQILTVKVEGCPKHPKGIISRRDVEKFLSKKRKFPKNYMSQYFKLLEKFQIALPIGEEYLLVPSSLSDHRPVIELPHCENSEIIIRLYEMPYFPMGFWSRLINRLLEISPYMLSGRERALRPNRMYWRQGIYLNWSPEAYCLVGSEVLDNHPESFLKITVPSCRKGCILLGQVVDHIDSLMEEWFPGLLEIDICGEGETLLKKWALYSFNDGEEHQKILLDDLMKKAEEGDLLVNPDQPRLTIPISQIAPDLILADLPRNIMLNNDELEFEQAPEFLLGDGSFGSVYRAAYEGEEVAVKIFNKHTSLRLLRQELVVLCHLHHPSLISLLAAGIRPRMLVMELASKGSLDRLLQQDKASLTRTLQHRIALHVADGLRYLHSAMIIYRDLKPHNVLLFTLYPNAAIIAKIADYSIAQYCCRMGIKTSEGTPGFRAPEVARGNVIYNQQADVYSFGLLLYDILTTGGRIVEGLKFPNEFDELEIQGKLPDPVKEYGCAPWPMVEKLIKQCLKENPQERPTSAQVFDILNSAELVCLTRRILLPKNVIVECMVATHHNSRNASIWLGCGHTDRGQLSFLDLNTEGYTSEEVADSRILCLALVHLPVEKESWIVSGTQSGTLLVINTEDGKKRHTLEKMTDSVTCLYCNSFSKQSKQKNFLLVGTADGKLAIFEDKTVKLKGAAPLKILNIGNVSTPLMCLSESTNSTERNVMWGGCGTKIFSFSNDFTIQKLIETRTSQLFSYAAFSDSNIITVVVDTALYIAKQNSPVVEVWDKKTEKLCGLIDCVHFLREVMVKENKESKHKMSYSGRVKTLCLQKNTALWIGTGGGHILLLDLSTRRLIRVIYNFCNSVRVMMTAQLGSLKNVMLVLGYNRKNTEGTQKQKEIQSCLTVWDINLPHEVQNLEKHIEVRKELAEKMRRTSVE

One assay has as its target G2019S LRRK2 (Homo sapiens, UniProt Q5S007, G2019S). The assay is described as follows: DiscoveRx KINOMEscan binding constant (Kd). The arrangement: purchased DiscoveRx (KINOMEscan service); host or cells: E. coli BL21-derived host (T7 phage) or HEK-293. As to conditions: class symbol. As to the method: Compounds of formulas (II), (I), (I-A), (I-B), (I-C), (I-D), (I-D-1), (I-D-2), (I-E), (I-F), (I-G), (I-H), (I-I), (I-I-1), (I-I-2), (I-J), (I-K), (I-L), (I-M), (I-N), (I-Z-1), (I-Z-2), (I-Z-2-a), (I-Z-2-b), (I-Z-2-c), (I-Z-2-d), (I-Z-3-a), (I-Z-3-b), (I-Z-3-c), or (I-Z-3-d) were tested using DiscoveRx's KINOMEscan™ technology to measure a binding constant (Kd) to wild type and G2019S LRRK2. Kinase-tagged T7 phage strains were prepared in an E. coli host derived from the BL21 strain. E. coli were grown to log-phase and infected with T7 phage and incubated with shaking at 32° C. until lysis. The lysates were centrifuged and filtered to remove cell debris. The remaining kinases were produced in HEK-293 cells and subsequently tagged with DNA for qPCR detection. Streptavidin-coated magnetic beads were treated with biotinylated small molecule ligands for 30 minutes at room temperature to generate affinity resins for kinase assays. The liganded beads were blocked with excess biotin and washed with blocking buffer (SeaBlock (Pierce), 1% BSA, 0.05% Tween 20, 1 mM DTT) to remove unbound ligand and to reduce non-specific binding. Binding reactions were assembled by combining kinases, liganded affinity beads, and test compounds in 1× binding buffer (20% SeaBlock, 0.17×PBS, 0.05% Tween 20, 6 mM DTT). All reactions were performed in polystyrene 96-well plates in a final volume of 0.135 ml. The assay plates were incubated at room temperature with shaking for 1 hour and the affinity beads were washed with wash buffer (lx PBS, 0.05% Tween 20). The beads were then re-suspended in elution buffer (lx PBS, 0.05% Tween 20, 0.5 μM non-biotinylated affinity ligand) and incubated at room temperature with shaking for 30 minutes. The kinase concentration in the eluates was measured by qPCR. An 11-point 3-fold serial dilution of each test compound was prepared in 100% DMSO at 100× final test concentration and subsequently diluted to 1× in the assay (final DMSO concentration=[…]). Most Kds were determined using a compound top concentration=30,000 nM.
Take `CCc1nnc(/C=C2\C(=O)Nc3ccc(OC)cc32)[nH]1` [Compound 25, (3Z)-3-[(5-ethyl-4H-1,2,4-triazol-3-yl)methylene]-5-methoxy-indolin-2-one]: the Kd is at least 1000 nM. As for `CC(C)Oc1ccc2c(c1F)/C(=C/c1cnc(N3CCOCC3)[nH]1)C(=O)N2` [Compound 38, (3Z)-4-fluoro-5-isopropoxy-3-[(2-morpholino-1H-imidazol-5-yl)methylene]indolin-2-one], the dissociation constant (Kd) was at least 1000 nM.

The assay is the same for the next values; noted with them: numeric value.
Consider `COc1ccc2c(c1)/C(=C/c1cnc(-c3c(F)cccc3F)[nH]1)C(=O)N2` [Compound 20, (3Z)-3-[[2-(2,6-difluorophenyl)-1H-imidazol-5-yl]methylene]-5-methoxy-indolin-2-one], for which binding was characterised by a dissociation constant (Kd) of 150 nM. `CC(C)Oc1ccc2c(c1)/C(=C/c1cnc(C(C)C)[nH]1)C(=O)N2` [Compound 21, (3Z)-5-isopropoxy-3-[(2-isopropyl-1H-imidazol-5-yl)methylene]indolin-2-one] yielded a Kd of 16.5 nM.

Molecule `CC(C)Cc1ncc(/C=C2\C(=O)Nc3ccc(OC(C)C)cc32)[nH]1` [Compound 22, (3Z)-3-[(2-isobutyl-1H-imidazol-5-yl)methylene]-5-isopropoxy-indolin-2-one] gave a Kd of 32.5 nM.

Take `CC(C)Oc1ccc2c(c1)/C(=C/c1cnc(CN3CCOCC3)[nH]1)C(=O)N2` [Compound 23, (3Z)-5-isopropoxy-3-[[2-(morpholinomethyl)-1H-imidazol-5-yl]methylene]indolin-2-one]: binding was put at a Kd of 420 nM. In turn, `COCCc1ncc(/C=C2\C(=O)Nc3ccc(OC)cc32)[nH]1` [Compound 24, (3Z)-5-methoxy-3-[[2-(2-methoxyethyl)-1H-imidazol-5-yl]methylene]indolin-2-one] yielded a Kd of 450 nM. In turn, `CCc1nnc(/C=C2\C(=O)Nc3ccc(OC)cc32)[nH]1` [Compound 25, (3Z)-3-[(5-ethyl-4H-1,2,4-triazol-3-yl)methylene]-5-methoxy-indolin-2-one] showed a Kd of over 30000 nM.

The molecule `CC(C)Oc1ccc2c(c1)/C(=C/c1nnc(C(C)C)[nH]1)C(=O)N2` [Compound 26, (3Z)-5-isopropoxy-3-[(5-isopropyl-4H-1,2,4-triazol-3-yl)methylene]indolin-2-one] returned a Kd of 12500 nM. Regarding `CC(C)Oc1ccc2c(c1)/C(=C/c1cnc(N3CCOCC3)[nH]1)C(=O)N2` [Compound 27, (3Z)-5-isopropoxy-3-[(2-morpholino-1H-imidazol-5-yl)methylene]indolin-2-one], binding was characterised by a dissociation constant (Kd) of 15.5 nM.

Molecule `O=C1Nc2ccc(O)cc2/C1=C/c1cnc(C2CCOCC2)[nH]1` [Compound 28, (3Z)-5-hydroxy-3-[(2-tetrahydropyran-4-yl-1H-imidazol-5-yl)methylene]indolin-2-one] registered a Kd of 68 nM. Compared with the last molecule, the Kd is about 4.4-fold higher.

Regarding `CCc1ccc2c(c1)/C(=C/c1cnc(C3CCOCC3)[nH]1)C(=O)N2` [Compound 29, (3Z)-5-ethyl-3-[(2-tetrahydropyran-4-yl-1H-imidazol-5-yl)methylene]indolin-2-one], the Kd turned out to be 54 nM. For `CC(C)Oc1ccc2c(c1)/C(=C/c1cnc(C3CCOCC3)[nH]1)C(=O)N2` [Compound 30, (3Z)-5-isopropoxy-3-[(2-tetrahydropyran-4-yl-1H-imidazol-5-yl)methylene]indolin-2-one], the Kd stood at 28 nM. `CC(C)Oc1ccc2c(c1)/C(=C/c1cnc(C3CCN(CCF)CC3)[nH]1)C(=O)N2` [Compound 31, (3Z)-3-[[2-[1-(2-fluoroethyl)-4-piperidyl]-1H-imidazol-5-yl]methylene]-5-isopropoxy-indolin-2-one]: the Kd is 43 nM. `O=C1Nc2ccc(Cl)cc2/C1=C/c1cnc(C2CCOCC2)[nH]1` [Compound 32, (3Z)-5-chloro-3-[(2-tetrahydropyran-4-yl-1H-imidazol-5-yl)methylene]indolin-2-one] registered a Kd of 59 nM. `O=C1Nc2ccc(Cl)cc2/C1=C/c1cnc(C2CCN(CCF)CC2)[nH]1` [Compound 33, (3Z)-5-chloro-3-[[2-[1-(2-fluoroethyl)-4-piperidyl]-1H-imidazol-5-yl]methylene]indolin-2-one] returned a Kd of 150 nM.

`O=C1Nc2ccc(OCCF)cc2/C1=C/c1cnc(C2CCOCC2)[nH]1` [Compound 34, (3Z)-5-(2-fluoroethoxy)-3-[(2-tetrahydropyran-4-yl-1H-imidazol-5-yl)methylene]indolin-2-one] returned a Kd of 47.5 nM. Consider `CC(C)Oc1ccc2c(c1)/C(=C/c1cnc(N(C)C)[nH]1)C(=O)N2` [Compound 35, (3Z)-3-[[2-(dimethylamino)-1H-imidazol-5-yl]methylene]-5-isopropoxy-indolin-2-one], for which the Kd was 32 nM. On to `CC(C)Oc1cc(F)c2c(c1)/C(=C/c1cnc(N3CCOCC3)[nH]1)C(=O)N2` [Compound 36, (3Z)-7-fluoro-5-isopropoxy-3-[(2-morpholino-1H-imidazol-5-yl)methylene]indolin-2-one], for which the Kd is 67 nM. Compared with the last molecule, the Kd is about 2.1-fold higher.

`CC(C)Oc1cc2c(cc1F)NC(=O)/C2=C\c1cnc(N2CCOCC2)[nH]1` [Compound 37, (3Z)-6-fluoro-5-isopropoxy-3-[(2-morpholino-1H-imidazol-5-yl)methylene]indolin-2-one] registered a Kd of 24 nM. Turning to `CC(C)Oc1ccc2c(c1)/C(=C/c1ncc(C3CCOCC3)[nH]1)C(=O)N2` [Compound 39, (3Z)-5-isopropoxy-3-[(5-tetrahydropyran-4-yl-1H-imidazol-2-yl)methylene]indolin-2-one], the affinity, expressed as Kd, was 123 nM. This Kd lies about 5.1-fold higher than the previous one.

`C/C(=C1/C(=O)Nc2ccc(OC(C)C)cc21)c1cnc(N2CCOCC2)[nH]1` [Compound 40, (3Z)-5-isopropoxy-3-[1-(2-morpholino-1H-imidazol-5-yl)ethylidene]indolin-2-one] yielded a Kd of 22 nM. Same read-out and setting: the value for `CC(C)Oc1cc2c(cc1F)NC(=O)/C2=C\c1cnc(C2CCOCC2)[nH]1` [Compound 41, (3Z)-6-fluoro-5-isopropoxy-3-[(2-tetrahydropyran-4-yl-1H-imidazol-5-yl)methylene]indolin-2-one] was 25 nM. `C/C(=C1/C(=O)Nc2cc(F)c(OC(C)C)cc21)c1cnc(N2CCOCC2)[nH]1` [Compound 42, (3Z)-6-fluoro-5-isopropoxy-3-[1-(2-morpholino-1H-imidazol-5-yl)ethylidene]indolin-2-one] gave a Kd of 57 nM. Compared with the last molecule, the Kd is about 2.3-fold higher. In turn, `CC(C)Oc1cc2c(cc1F)NC(=O)/C2=C\c1cnc(C2CCN(CCF)CC2)[nH]1` [Compound 43, (3Z)-6-fluoro-3-[[2-[1-(2-fluoroethyl)-4-piperidyl]-1H-imidazol-5-yl]methylene]-5-isopropoxy-indolin-2-one] gave a Kd of 34 nM. Molecule `CCN1CCN(c2ncc(/C=C3\C(=O)Nc4cc(F)c(OC(C)C)cc43)[nH]2)CC1` [Compound 44, (3Z)-3-[[2-(4-ethylpiperazin-1-yl)-1H-imidazol-5-yl]methylene]-6-fluoro-5-isopropoxy-indolin-2-one] displayed a Kd of 41 nM.

`CC(C)Oc1cc2c(cn1)NC(=O)/C2=C\c1cnc(C2CCOCC2)[nH]1` [Compound 45, (3Z)-5-isopropoxy-3-[(2-tetrahydropyran-4-yl-1H-imidazol-5-yl)methylene]-1H-pyrrolo[2,3-c]pyridin-2-one] showed a Kd of 260 nM. Still for that read-out and setting: under `CC(C)Oc1ccc2c(n1)/C(=C/c1cnc(C3CCOCC3)[nH]1)C(=O)N2` [Compound 46, (3Z)-5-isopropoxy-3-[(2-tetrahydropyran-4-yl-1H-imidazol-5-yl)methylene]-1H-pyrrolo[3,2-b]pyridin-2-one] stands 250 nM.

As usually defined, the Kd is the equilibrium constant for the complex coming apart. Read a high Kd as weaker binding.

Values taken from patent US20140205537A1, “LRRK2 INHIBITORS” (ZENOBIA THERAPEUTICS, INC., priority 2011, published 2014).
